In ChEMBL document CHEMBL5543109, “Novel β-Hairpin Antimicrobial Peptide Containing the β-Turn Sequence of -NG- and the Tryptophan Zippers Facilitate Self-Assembly into Nanofibers, Exhibiting Excellent Antimicrobial Performance” (J Med Chem, 2024):
Values after ≈ are worked out from the molar mass of the structure shown.

Columns and labels:
Staphylococcus aureus [1] = assay: Antibacterial activity against Staphylococcus aureus ATCC 25923 incubated for 18 hrs by broth microdilution method; type: functional
Bacillus subtilis [2] = assay: Antibacterial activity against Bacillus subtilis ATCC 23857 incubated for 18 hrs by broth microdilution method; type: functional
[3] = test system: Staphylococcus epidermidis; assay: Antibacterial activity against Staphylococcus epidermidis ATCC 12228 incubated for 18 hrs by broth microdilution method; type: functional
Klebsiella pneumoniae [4] = assay: Antibacterial activity against Klebsiella pneumoniae ATCC 700603 incubated for 18 hrs by broth microdilution method; type: functional
Escherichia coli [5] = assay: Antibacterial activity against Escherichia coli ATCC 25922 incubated for 18 hrs by broth microdilution method; type: functional
Pseudomonas aeruginosa [6] = assay: Antibacterial activity against Pseudomonas aeruginosa ATCC 27853 incubated for 18 hrs by broth microdilution method; type: functional
Staphylococcus aureus [7] = assay: Antibacterial activity against methicillin resistant Staphylococcus aureus incubated for 18 hrs by broth microdilution method; type: functional
Staphylococcus aureus [8] = assay: Antibacterial activity against methicillin resistant Staphylococcus aureus 113 incubated for 18 hrs by broth microdilution method; type: functional
Staphylococcus aureus [9] = assay: Antibacterial activity against Staphylococcus aureus S794 incubated for 18 hrs by broth microdilution method; type: functional
Staphylococcus aureus [10] = assay: Antibacterial activity against Staphylococcus aureus S125 incubated for 18 hrs by broth microdilution method; type: functional
Staphylococcus aureus [11] = assay: Antibacterial activity against methicillin resistant Staphylococcus aureus 75 incubated for 18 hrs by broth microdilution method; type: functional
Staphylococcus aureus [12] = assay: Antibacterial activity against Staphylococcus aureus incubated for 18 hrs by broth microdilution method; type: functional
Staphylococcus aureus [13] = assay: Antibacterial activity against kanamycin resistant Staphylococcus aureus incubated for 18 hrs by broth microdilution method; type: functional
Staphylococcus aureus [14] = assay: Antibacterial activity against rifampicin resistant Staphylococcus aureus incubated for 18 hrs by broth microdilution method; type: functional
Escherichia coli [15] = assay: Antibacterial activity against Escherichia coli incubated for 18 hrs by broth microdilution method; type: functional
Escherichia coli [16] = assay: Antibacterial activity against kanamycin resistant Escherichia coli incubated for 18 hrs by broth microdilution method; type: functional
Escherichia coli [17] = assay: Antibacterial activity against rifampicin resistant Escherichia coli incubated for 18 hrs by broth microdilution method; type: functional
Staphylococcus aureus [18] = assay: Bactericidal activity against Staphylococcus aureus ATCC 25923 incubated for 18 hrs by broth microdilution method; type: functional
Bacillus subtilis [19] = assay: Bactericidal activity against Bacillus subtilis ATCC 23857 incubated for 18 hrs by broth microdilution method; type: functional
[20] = test system: Staphylococcus epidermidis; assay: Bactericidal activity against Staphylococcus epidermidis ATCC 12228 incubated for 18 hrs by broth microdilution method; type: functional
Klebsiella pneumoniae [21] = assay: Bactericidal activity against Klebsiella pneumoniae ATCC 700603 incubated for 18 hrs by broth microdilution method; type: functional
Escherichia coli [22] = assay: Bactericidal activity against Escherichia coli ATCC 25922 incubated for 18 hrs by broth microdilution method; type: functional
Pseudomonas aeruginosa [23] = assay: Bactericidal activity against Pseudomonas aeruginosa ATCC 27853 incubated for 18 hrs by broth microdilution method; type: functional
Erythrocyte = assay: Hemolytic activity in mouse erythrocytes assessed as concentration required to cause 10% hemolysis incubated for 1 hr; type: toxicity, cell-based
[24] = Retention time of the compound; type: physicochemical
Staphylococcus aureus [25] = assay: Antibacterial activity against Staphylococcus aureus at 2 times MIC preincubated for 1 hr with trypsin followed by enzyme inactivation and bacterial addition and measured after 18 hrs; type: functional; settings: time 19 hrs
Staphylococcus aureus [26] = assay: Antibacterial activity against Staphylococcus aureus at 2 times MIC preincubated for 1 hr with chymotrypsin followed by enzyme inactivation and bacterial addition and measured after 18 hrs; type: functional; settings: time 19 hrs

| Compound | MIC (Staphylococcus aureus [1]) [µM] | MIC (Bacillus subtilis [2]) [µM] | MIC [3] [µM] | MIC (Klebsiella pneumoniae [4]) [µM] | MIC (Escherichia coli [5]) [µM] | MIC (Pseudomonas aeruginosa [6]) [µM] | MIC (Staphylococcus aureus [7]) [µM] | MIC (Staphylococcus aureus [8]) [µM] | MIC (Staphylococcus aureus [9]) [µM] | MIC (Staphylococcus aureus [10]) [µM] | MIC (Staphylococcus aureus [11]) [µM] | MIC (Staphylococcus aureus [12]) [µM] | MIC (Staphylococcus aureus [13]) [µM] | MIC (Staphylococcus aureus [14]) [µM] | MIC (Escherichia coli [15]) [µM] | MIC (Escherichia coli [16]) [µM] | MIC (Escherichia coli [17]) [µM] | MBC (Staphylococcus aureus [18]) [µM] | MBC (Bacillus subtilis [19]) [µM] | MBC [20] [µM] | further results |
| --- | --- | --- | --- | --- | --- | --- | --- | --- | --- | --- | --- | --- | --- | --- | --- | --- | --- | --- | --- | --- | --- |
| CO/N=C(\C(=O)N[C@@H]1C(=O)N2C(C(=O)O)=C(COC(C)=O)CS[C@H]12)c1csc(N)n1 [CEFOTAXIME] | 2 (≈ 0.911 µg/mL) | 64 (≈ 29.2 µg/mL) | < 1 | 4 (≈ 1.82 µg/mL) | < 1 | 8 (≈ 3.64 µg/mL) | 256 (≈ 117 µg/mL) | 32 (≈ 14.6 µg/mL) | 256 (≈ 117 µg/mL) | 8 (≈ 3.64 µg/mL) | 256 (≈ 117 µg/mL) | 2 (≈ 0.911 µg/mL) | 0.5 (≈ 0.228 µg/mL) | 0.5 (≈ 0.228 µg/mL) | 0.5 (≈ 0.228 µg/mL) | 64 (≈ 29.2 µg/mL) | 0.5 (≈ 0.228 µg/mL) | – | – | – | – |
| NCCCC[C@@H](N)C(=O)N[C@H](Cc1c[nH]c2ccccc12)C(=O)N[C@H](CCCCN)C(=O)N[C@H](Cc1c[nH]c2ccccc12)C(=O)N[C@H](CCCCN)C(=O)NCC(=O)NCC(=O)N[C@H](CCCCN)C(=O)N[C@H](Cc1c[nH]c2ccccc12)C(=O)N[C@H](CCCCN)C(=O)N[C@H](Cc1c[nH]c2ccccc12)C(=O)N[C@H](CCCCN)C(N)=O | 16 (≈ 26.3 µg/mL) | 2 (≈ 3.29 µg/mL) | 4 (≈ 6.58 µg/mL) | 16 (≈ 26.3 µg/mL) | 8 (≈ 13.2 µg/mL) | 64 (≈ 105 µg/mL) | – | – | – | – | – | – | – | – | – | – | – | 32 (≈ 52.6 µg/mL) | 8 (≈ 13.2 µg/mL) | 8 (≈ 13.2 µg/mL) | MBC (Klebsiella pneumoniae [21]): 64 µM (≈ 105 µg/mL); MBC (Escherichia coli [22]): 8 µM (≈ 13.2 µg/mL); MBC (Pseudomonas aeruginosa [23]): 128 µM (≈ 211 µg/mL); MHC (Erythrocyte): > 512 µM; Retention_time [24]: 11.03 min; Activity (Staphylococcus aureus [25]): 100%; Activity (Staphylococcus aureus [26]): 100% |
| C[C@@H](O)[C@H]1C(=O)N2C(C(=O)O)=C(S[C@@H]3CN[C@H](C(=O)N(C)C)C3)[C@H](C)[C@H]12 [MEROPENEM] | – | – | – | – | – | – | 32 (≈ 12.3 µg/mL) | 0.5 (≈ 0.192 µg/mL) | 0.5 (≈ 0.192 µg/mL) | 0.5 (≈ 0.192 µg/mL) | 128 (≈ 49.1 µg/mL) | 0.5 (≈ 0.192 µg/mL) | 0.5 (≈ 0.192 µg/mL) | 0.5 (≈ 0.192 µg/mL) | 0.5 (≈ 0.192 µg/mL) | 0.5 (≈ 0.192 µg/mL) | 0.5 (≈ 0.192 µg/mL) | – | – | – | – |
| CN[C@@H]1[C@H](O[C@H]2[C@H](O[C@H]3[C@H](O)[C@@H](O)[C@H](N=C(N)N)[C@@H](O)[C@@H]3N=C(N)N)O[C@@H](C)[C@]2(O)C=O)O[C@@H](CO)[C@H](O)[C@H]1O [STREPTOMYCIN] | – | – | – | – | – | – | 32 (≈ 18.6 µg/mL) | 64 (≈ 37.2 µg/mL) | 128 (≈ 74.4 µg/mL) | 32 (≈ 18.6 µg/mL) | 32 (≈ 18.6 µg/mL) | 0.5 (≈ 0.291 µg/mL) | 4 (≈ 2.33 µg/mL) | 2 (≈ 1.16 µg/mL) | 4 (≈ 2.33 µg/mL) | 64 (≈ 37.2 µg/mL) | 2 (≈ 1.16 µg/mL) | – | – | – | – |
| GENTAMICIN | – | – | – | – | – | – | 16 | 0.5 | 32 | 8 | 32 | 0.5 | 0.5 | 0.5 | 0.5 | 32 | 0.5 | – | – | – | – |
| NCCCC[C@@H](N)C(=O)N[C@H](Cc1c[nH]c2ccccc12)C(=O)N[C@H](CCCCN)C(=O)N[C@H](Cc1c[nH]c2ccccc12)C(=O)N[C@H](CCCCN)C(=O)N[C@@H](CC(N)=O)C(=O)NCC(=O)N[C@H](CCCCN)C(=O)N[C@H](Cc1c[nH]c2ccccc12)C(=O)N[C@H](CCCCN)C(=O)N[C@H](Cc1c[nH]c2ccccc12)C(=O)N[C@H](CCCCN)C(N)=O | 16 (≈ 27.2 µg/mL) | 2 (≈ 3.4 µg/mL) | 4 (≈ 6.81 µg/mL) | 64 (≈ 109 µg/mL) | 8 (≈ 13.6 µg/mL) | 32 (≈ 54.5 µg/mL) | – | – | – | – | – | – | – | – | – | – | – | 64 (≈ 109 µg/mL) | 8 (≈ 13.6 µg/mL) | 8 (≈ 13.6 µg/mL) | MBC (Klebsiella pneumoniae [21]): 128 µM (≈ 218 µg/mL); MBC (Escherichia coli [22]): 8 µM (≈ 13.6 µg/mL); MBC (Pseudomonas aeruginosa [23]): 128 µM (≈ 218 µg/mL); MHC (Erythrocyte): > 512 µM; Retention_time [24]: 11.03 min; Activity (Staphylococcus aureus [25]): 100%; Activity (Staphylococcus aureus [26]): 100% |
| NCCCC[C@@H](N)C(=O)N[C@H](Cc1c[nH]c2ccccc12)C(=O)N[C@H](CCCCN)C(=O)N[C@H](Cc1c[nH]c2ccccc12)C(=O)N[C@H](CCCCN)C(=O)N1CCC[C@@H]1C(=O)N1CCC[C@H]1C(=O)N[C@H](CCCCN)C(=O)N[C@H](Cc1c[nH]c2ccccc12)C(=O)N[C@H](CCCCN)C(=O)N[C@H](Cc1c[nH]c2ccccc12)C(=O)N[C@H](CCCCN)C(N)=O | 32 (≈ 55.2 µg/mL) | 4 (≈ 6.9 µg/mL) | 4 (≈ 6.9 µg/mL) | 16 (≈ 27.6 µg/mL) | 8 (≈ 13.8 µg/mL) | 4 (≈ 6.9 µg/mL) | – | – | – | – | – | – | – | – | – | – | – | 64 (≈ 110 µg/mL) | 8 (≈ 13.8 µg/mL) | 8 (≈ 13.8 µg/mL) | MBC (Klebsiella pneumoniae [21]): 16 µM (≈ 27.6 µg/mL); MBC (Escherichia coli [22]): 8 µM (≈ 13.8 µg/mL); MBC (Pseudomonas aeruginosa [23]): 32 µM (≈ 55.2 µg/mL); MHC (Erythrocyte): > 512 µM; Retention_time [24]: 11.03 min; Activity (Staphylococcus aureus [25]): 100%; Activity (Staphylococcus aureus [26]): 100% |
